Test results taken from ChEMBL document CHEMBL5500426, “Directly Suppressing MYC Function with Novel Alkynyl-Substituted Phenylpyrazole Derivatives that Induce Protein Degradation and Perturb MYC/MAX Interaction” (J Med Chem, 2024).
Calls of active or inactive are those of the source. The calls are words filed in the database; no cut-off is given here.

Tested on: HCT-116
Experiment: Antiproliferative activity against human HCT-116 cells assessed as inhibition of cell growth incubated for 72 hrs by MTT assay
Format: functional, cell-based
Conditions: HCT-116, 72 h

| IC50 | Structure (SMILES) |
| --- | --- |
| 1370 nM | Cn1nc(C(F)(F)F)cc1-c1ccc(OCc2ccc(Cl)cc2)c(-c2ccc(Cl)c(C(F)(F)F)c2)c1O |

Target: Myc proto-oncogene protein (Homo sapiens) (UniProt P01106)
Sequence (P01106 whole entry): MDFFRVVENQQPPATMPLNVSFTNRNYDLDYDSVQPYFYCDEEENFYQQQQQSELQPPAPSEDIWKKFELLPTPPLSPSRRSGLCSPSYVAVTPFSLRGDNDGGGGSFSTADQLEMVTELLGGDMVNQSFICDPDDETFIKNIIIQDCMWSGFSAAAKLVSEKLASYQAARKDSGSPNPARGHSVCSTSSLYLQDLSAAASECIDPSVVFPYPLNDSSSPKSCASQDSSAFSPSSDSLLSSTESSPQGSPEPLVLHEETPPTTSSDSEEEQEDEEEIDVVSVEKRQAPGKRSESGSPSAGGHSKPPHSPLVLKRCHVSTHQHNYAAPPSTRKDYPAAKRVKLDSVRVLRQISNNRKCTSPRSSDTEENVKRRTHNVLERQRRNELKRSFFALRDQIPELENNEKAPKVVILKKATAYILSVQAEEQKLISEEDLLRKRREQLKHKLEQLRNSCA
Experiment: Inhibition of MYC in human PC-3 cells assessed as downregulation of MYC expression at 1 uM incubated for 24 hrs by Western blotting analysis relative to control
Format: cell-based
Conditions: not given

| inhibition | Structure (SMILES) |
| --- | --- |
| 31% | Cn1nc(C(F)(F)F)cc1-c1ccc(OCc2ccc(Cl)cc2)c(-c2ccc(Cl)c(C(F)(F)F)c2)c1O |

Tested on: SGC-7901
Experiment: Antiproliferative activity against human SGC-7901 cells assessed as inhibition of cell growth incubated for 72 hrs by MTT assay
Format: functional, cell-based
Conditions: SGC-7901, 72 h

| IC50 | Structure (SMILES) |
| --- | --- |
| 4.37 µM | Cn1nc(C(F)(F)F)cc1-c1ccc(OCc2ccc(Cl)cc2)c(-c2ccc(Cl)c(C(F)(F)F)c2)c1O |

Target: Myc proto-oncogene protein (Homo sapiens) (UniProt P01106)
Experiment: Inhibition of MYC in human PC-3 cells assessed as downregulation of MYC expression incubated for 24 hrs by Western blotting analysis
Format: cell-based
Conditions: not given

| inhibition | Structure (SMILES) |
| --- | --- |
| Dose-Dependent Effect | Cn1nc(C(F)(F)F)cc1-c1ccc(OCc2ccc(Cl)cc2)c(-c2ccc(Cl)c(C(F)(F)F)c2)c1O |

Tested on: HepG2
Experiment: Antiproliferative activity against human HepG2 cells assessed as inhibition of cell growth incubated for 72 hrs by MTT assay
Format: functional, cell-based
Conditions: HepG2, 72 h

| IC50 | Structure (SMILES) |
| --- | --- |
| 1570 nM | Cn1nc(C(F)(F)F)cc1-c1ccc(OCc2ccc(Cl)cc2)c(-c2ccc(Cl)c(C(F)(F)F)c2)c1O |

Target: c-Myc/c-Max (Homo sapiens) (UniProt P01106+P61244)
Sequence (P01106 whole entry): as above
Sequence (P61244 2-160 partner limits assumed): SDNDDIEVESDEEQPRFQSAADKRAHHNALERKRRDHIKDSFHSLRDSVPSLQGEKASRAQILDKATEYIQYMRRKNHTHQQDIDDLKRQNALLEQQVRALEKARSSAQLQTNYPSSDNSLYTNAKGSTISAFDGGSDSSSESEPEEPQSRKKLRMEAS
Experiment: Inhibition of MYC/MAX protein-protein interaction in human PC-3 cells at 10 uM incubated for 1 hr by Co-immunoprecipitation based immunoblotting analysis
Format: cell-based
Conditions: not given

| inhibition | Structure (SMILES) |
| --- | --- |
| Active | Cn1nc(C(F)(F)F)cc1-c1ccc(OCc2ccc(Cl)cc2)c(-c2ccc(Cl)c(C(F)(F)F)c2)c1O |

Tested on: PC-3
Experiment: Antiproliferative activity against human PC-3 cells assessed as inhibition of cell growth incubated for 72 hrs by MTT assay
Format: functional, cell-based
Conditions: PC-3, 72 h

| Structure (SMILES) | IC50 |
| --- | --- |
| CC(C)(O)CCC#Cc1ccc(-c2cc(C(F)(F)F)n[nH]2)c(O)c1-c1ccc(Cl)c(C(F)(F)F)c1 | 2.36 µM |
| Cn1nc(C(F)(F)F)cc1-c1ccc(C#CCCC(C)(C)O)c(-c2ccc(Cl)c(C(F)(F)F)c2)c1O | 30.1 µM |
| Cn1nc(C(F)(F)F)cc1-c1ccc(C#CCCCO)c(-c2ccc(Cl)c(C(F)(F)F)c2)c1O | 65.5 µM |
| CN1CCN(CCCC#Cc2c(OCc3ccc(Cl)cc3)ccc(-c3cc(C(F)(F)F)n[nH]3)c2O)CC1 | 8.43 µM |
| CN1CCN(CC#Cc2ccc(-c3cc(C(F)(F)F)n[nH]3)c(O)c2-c2ccc(Cl)c(C(F)(F)F)c2)CC1 | 4.13 µM |
| Cn1nc(C(F)(F)F)cc1-c1ccc(OCc2ccc(Cl)cc2)c(-c2ccc(Cl)c(C(F)(F)F)c2)c1O | 6.62 µM |
| Oc1c(-c2cc(C(F)(F)F)n[nH]2)ccc(C#CCCN2CCN(C3COC3)CC2)c1-c1ccc(Cl)c(C(F)(F)F)c1 | 1.89 µM |
| Oc1c(-c2cc(C(F)(F)F)n[nH]2)ccc(C#CCCN2CC3(COC3)C2)c1-c1ccc(Cl)c(C(F)(F)F)c1 | 2.8 µM |
| CN1CCN(CCC#Cc2ccc(-c3cc(C(F)(F)F)n[nH]3)c(O)c2-c2ccc(Cl)c(C(F)(F)F)c2)CC1 | 3.07 µM |
| OCCCC#Cc1c(OCc2ccc(Cl)cc2)ccc(-c2cc(C(F)(F)F)n[nH]2)c1O | 12.9 µM |
| Cn1nc(C(F)(F)F)cc1-c1ccc(C#CCN2CCOCC2)c(-c2ccc(Cl)c(C(F)(F)F)c2)c1O | 58.5 µM |
| CC(C)(O)CCC#Cc1c(OCc2ccc(Cl)cc2)ccc(-c2cc(C(F)(F)F)n[nH]2)c1O | 6.7 µM |
| Cn1nc(C(F)(F)F)cc1-c1ccc(OCc2ccc(Cl)cc2)c(C#CCCCO)c1O | > 100 µM |
| Oc1c(-c2cc(C(F)(F)F)n[nH]2)ccc(C#CCN2CCOCC2)c1-c1ccc(Cl)c(C(F)(F)F)c1 | 2.02 µM |
| OCCC#Cc1c(OCc2ccc(Cl)cc2)ccc(-c2cc(C(F)(F)F)n[nH]2)c1O | 31 µM |
| Oc1c(-c2cc(C(F)(F)F)n[nH]2)ccc(C#CCCN2CCCCC2)c1-c1ccc(Cl)c(C(F)(F)F)c1 | 3.38 µM |
| CN1CCN(CC#Cc2c(OCc3ccc(Cl)cc3)ccc(-c3cc(C(F)(F)F)nn3C)c2O)CC1 | 16.6 µM |
| CN1CCN(CC#Cc2ccc(-c3cc(C(F)(F)F)nn3C)c(O)c2-c2ccc(Cl)c(C(F)(F)F)c2)CC1 | 20.2 µM |
| CN(C)CC#Cc1c(OCc2ccc(Cl)cc2)ccc(-c2cc(C(F)(F)F)n[nH]2)c1O | > 100 µM |
| Oc1c(-c2cc(C(F)(F)F)n[nH]2)ccc(OCc2ccc(Cl)cc2)c1C#CCCCN1CCCCC1 | 4.42 µM |

The remaining lines, values ahead:

| IC50 | Structure (SMILES) |
| --- | --- |
| > 100 µM | Cn1nc(C(F)(F)F)cc1-c1ccc(OCc2ccc(Cl)cc2)c(C#CCN2CCOCC2)c1O |
| 73.2 µM | Oc1c(-c2cc(C(F)(F)F)n[nH]2)ccc(OCc2ccc(Cl)cc2)c1C#CCN1CCOCC1 |
| 8.51 µM | Oc1c(-c2cc(C(F)(F)F)n[nH]2)ccc(OCc2ccc(Cl)cc2)c1C#CCCN1CCOCC1 |
| 44 µM | Oc1c(-c2cc(C(F)(F)F)n[nH]2)ccc(OCc2ccc(Cl)cc2)c1C#CCN1CCCCC1 |
| 4.88 µM | Oc1c(-c2cc(C(F)(F)F)n[nH]2)ccc(OCc2ccc(Cl)cc2)c1C#CCCN1CC2(COC2)C1 |
| 33.4 µM | Oc1c(-c2cc(C(F)(F)F)n[nH]2)ccc(OCc2ccc(Cl)cc2)c1C#CCN1CCC(O)CC1 |
| 3.65 µM | Oc1c(-c2cc(C(F)(F)F)n[nH]2)ccc(OCc2ccc(Cl)cc2)c1C#CCCN1CCCCC1 |
| > 100 µM | Oc1c(-c2cc(C(F)(F)F)n[nH]2)ccc(OCc2ccc(Cl)cc2)c1C#CCN1CCC(N2CCOCC2)CC1 |
| > 100 µM | Oc1c(-c2cc(C(F)(F)F)n[nH]2)ccc(OCc2ccc(Cl)cc2)c1C#CCN1CCCC1 |
| 6.07 µM | Oc1c(-c2cc(C(F)(F)F)n[nH]2)ccc(OCc2ccc(Cl)cc2)c1C#CCCN1CCC(O)CC1 |
| 9.89 µM | Oc1c(-c2cc(C(F)(F)F)n[nH]2)ccc(OCc2ccc(Cl)cc2)c1C#CCCCN1CCOCC1 |
| 15.3 µM | CN1CCN(CCC#Cc2c(OCc3ccc(Cl)cc3)ccc(-c3cc(C(F)(F)F)n[nH]3)c2O)CC1 |
| 6.89 µM | CN1CCN(CC#Cc2c(OCc3ccc(Cl)cc3)ccc(-c3cc(C(F)(F)F)n[nH]3)c2O)CC1 |
| 8.24 µM | Oc1c(-c2cc(C(F)(F)F)n[nH]2)ccc(OCc2ccc(Cl)cc2)c1C#CCN1CCN(C2COC2)CC1 |
| 23.6 µM | Oc1c(-c2cc(C(F)(F)F)n[nH]2)ccc(OCc2ccc(Cl)cc2)c1C#CCN1CC2(COC2)C1 |

Tested on: MDA-MB-468
Experiment: Antiproliferative activity against human MDA-MB-468 cells assessed as inhibition of cell growth incubated for 72 hrs by MTT assay
Format: functional, cell-based
Conditions: MDA-MB-468, 72 h

| IC50 | Structure (SMILES) |
| --- | --- |
| 7.08 µM | Cn1nc(C(F)(F)F)cc1-c1ccc(OCc2ccc(Cl)cc2)c(-c2ccc(Cl)c(C(F)(F)F)c2)c1O |

Tested on: MDA-MB-231
Experiment: Antiproliferative activity against human MDA-MB-231 cells assessed as inhibition of cell growth incubated for 72 hrs by MTT assay
Format: functional, cell-based
Conditions: MDA-MB-231, 72 h

| IC50 | Structure (SMILES) |
| --- | --- |
| 5.84 µM | Cn1nc(C(F)(F)F)cc1-c1ccc(OCc2ccc(Cl)cc2)c(-c2ccc(Cl)c(C(F)(F)F)c2)c1O |

Tested on: SK-OV-3
Experiment: Antiproliferative activity against human SK-OV-3 cells assessed as inhibition of cell growth incubated for 72 hrs by MTT assay
Format: functional, cell-based
Conditions: SK-OV-3, 72 h

| IC50 | Structure (SMILES) |
| --- | --- |
| 1740 nM | Cn1nc(C(F)(F)F)cc1-c1ccc(OCc2ccc(Cl)cc2)c(-c2ccc(Cl)c(C(F)(F)F)c2)c1O |

Tested on: HL-60
Experiment: Antiproliferative activity against human HL-60 cells assessed as inhibition of cell growth incubated for 72 hrs by MTT assay
Format: functional, cell-based
Conditions: HL-60, 72 h

| IC50 | Structure (SMILES) |
| --- | --- |
| 3.78 µM | Cn1nc(C(F)(F)F)cc1-c1ccc(OCc2ccc(Cl)cc2)c(-c2ccc(Cl)c(C(F)(F)F)c2)c1O |

Tested on: Myc-CaP
Experiment: Antiproliferative activity against mouse Myc-CaP cells assessed as inhibition of cell growth incubated for 72 hrs by MTT assay
Format: functional, cell-based
Conditions: not given

| Structure (SMILES) | IC50 |
| --- | --- |
| Cn1nc(C(F)(F)F)cc1-c1ccc(OCc2ccc(Cl)cc2)c(-c2ccc(Cl)c(C(F)(F)F)c2)c1O | 4.16 µM |

Tested on: A549
Experiment: Antiproliferative activity against human A549 cells assessed as inhibition of cell growth incubated for 72 hrs by MTT assay
Format: functional, cell-based
Conditions: A549, 72 h

| IC50 | Structure (SMILES) |
| --- | --- |
| 4.31 µM | Cn1nc(C(F)(F)F)cc1-c1ccc(OCc2ccc(Cl)cc2)c(-c2ccc(Cl)c(C(F)(F)F)c2)c1O |

Tested on: not listed separately
Experiment: Cytotoxicity against human HUVEC cells assessed as inhibition of cell growth incubated for 72 hrs by MTT assay
Format: toxicity, cell-based
Conditions: not given

| Structure (SMILES) | IC50 at 72 h |
| --- | --- |
| Cn1nc(C(F)(F)F)cc1-c1ccc(OCc2ccc(Cl)cc2)c(-c2ccc(Cl)c(C(F)(F)F)c2)c1O | > 100 µM |

Tested on: MV4-11
Experiment: Antiproliferative activity against human MV4-11 cells assessed as inhibition of cell growth incubated for 72 hrs by MTT assay
Format: functional, cell-based
Conditions: MV4-11, 72 h

| IC50 | Structure (SMILES) |
| --- | --- |
| 1530 nM | Cn1nc(C(F)(F)F)cc1-c1ccc(OCc2ccc(Cl)cc2)c(-c2ccc(Cl)c(C(F)(F)F)c2)c1O |

Tested on: not listed separately
Experiment: Cytotoxicity against human GES1 cells assessed as inhibition of cell growth incubated for 72 hrs by MTT assay
Format: toxicity, cell-based
Conditions: not given

| Structure (SMILES) | IC50 at 72 h |
| --- | --- |
| Cn1nc(C(F)(F)F)cc1-c1ccc(OCc2ccc(Cl)cc2)c(-c2ccc(Cl)c(C(F)(F)F)c2)c1O | > 100 µM |

Tested on: SK-N-BE(2)
Experiment: Antiproliferative activity against human SK-N-BE(2) cells assessed as inhibition of cell growth incubated for 72 hrs by MTT assay
Format: functional, cell-based
Conditions: SKNBE2, 72 h

| IC50 | Structure (SMILES) |
| --- | --- |
| 1740 nM | Cn1nc(C(F)(F)F)cc1-c1ccc(OCc2ccc(Cl)cc2)c(-c2ccc(Cl)c(C(F)(F)F)c2)c1O |
